According to US10544112B2, “Identification of ebsulfur analogues with broad-spectrum antifungal activity” (priority 2017, dated 2020):
In brackets after ≈: the same amount, converted by molar mass.

Legend:
[1] = system: C. albicans ATCC MYA-2310(S) (strain E); assay: Antifungal MIC determination (CLSI M27-A3, 96-well); format: cell-based, Candida albicans; conditions: strain E; compounds 1-4n and AmB; 48 h, RPMI 1640
Method: (§1) Fungal MIC determination experiments were performed using untreated 96-well plates (Corning). Cells were counted either by using a hemocytometer (Hausser Scientific, Horsham, Pa., USA) or by measuring optical density at attenuance of 600 nm (OD600) by using a Genesys 20 spectrophotometer (Thermo Scientific, Waltham, Mass., USA). Spectrophotometric and colorimetric measurements in 96-well plates were performed using a SpectraMax M5 spectrometer (Molecular Devices, Sunnyvale, Calif., USA).
(§2) Yeast strains Candida albicans ATCC 10231 (strain A), C. albicans ATCC 64124 (strain B), and C. albicans ATCC MYA-2876(S) (strain C) were kindly provided by Dr. Jon Y. Takemoto (Utah State University, Logan, UT, USA). C. albicans ATCC MYA-90819(R) (strain D), C. albicans ATCC MYA-2310(S) (strain E), C. albicans ATCC 1237(R) (strain F), C. albicans ATCC MYA-1003(R) (strain G), Candida glabrata ATCC 2001 (strain H), Candida krusei ATCC 6258 (strain I), and Candida parapsilosis ATCC 22019 (strain J) were obtained from the American Type Culture Collection (ATCC, Manassas, Va., USA). The (S) and (R) indicate that ATCC reports these strains to be susceptible (S) and resistant (R) to ITC and FLC. The filamentous fungal strains Aspergillus flavus ATCC MYA-3631 (strain K), and Aspergillus terreus ATCC MYA-3633 (strain M) were also obtained from the American Type Culture Collection (ATCC, Manassas, Va., USA). Aspergillus nidulans ATCC 38163 (strain L) was kindly provided by Dr. Jon S. Thorson (University of Kentucky, Lexington, Ky., USA), respectively. Yeast strains were cultured at 35° C. Filamentous fungal strains were cultured at 25° C. and the spores were harvested. All fungal strains were cultured in RPMI 1640 medium (catalog # R6504, Sigma-Aldrich Chemical Co., St. Louis, Mo.) buffered to pH 7.0 with 0.165 M morpholinepropanesulfonic acid (MOPS) buffer (Sigma-Aldrich Chemical Co.).
(§3) The MIC values against fungal strains were determined based on a previously published protocol. MIC values for ebsulfur (2a) analogues against fungal cells were evaluated in 96-well plates as described in the CLSI document M27-A3 with minor modifications. […] Therefore, potato dextrose broth (PDB) was used to grow the yeast inocula of all strains tested, which were later diluted in RPMI 1640 medium to perform determination of MIC values. […] The tested compounds (10 mg/mL) were diluted to the working stocks (500 μg/mL) by addition of DMSO. Two-fold serial dilution of the working stocks was prepared by addition of RPMI 1640 medium (100 μL) and cell suspension (100 μL) to 96-well microtiter plate to achieve final drug and inoculum concentrations ranging from 12.5-0.02 μg/mL and 5×10^3 CFU/mL, respectively. Plates were incubated for 48 h at 35° C. […]

[2] = system: C. albicans ATCC MYA-2876(S) (strain C); assay: as above; format: cell-based, Candida albicans; conditions: strain C; compounds 1-4n and AmB; 48 h, RPMI 1640
Method: as §1, §2, §3

[3] = system: Aspergillus nidulans ATCC 38163 (strain L); assay: Antifungal MIC determination, filamentous fungi spores; format: cell-based; conditions: strain L; spores
Method: as §1, §2
(§4) The MIC values against fungal strains were determined based on a previously published protocol. MIC values for ebsulfur (2a) analogues against fungal cells were evaluated in 96-well plates as described in the CLSI document M27-A3 with minor modifications. […] Therefore, potato dextrose broth (PDB) was used to grow the yeast inocula of all strains tested, which were later diluted in RPMI 1640 medium to perform determination of MIC values. […] The tested compounds (10 mg/mL) were diluted to the working stocks (500 μg/mL) by addition of DMSO. Two-fold serial dilution of the working stocks was prepared by addition of RPMI 1640 medium (100 μL) and cell suspension (100 μL) to 96-well microtiter plate to achieve final drug and inoculum concentrations ranging from 12.5-0.02 μg/mL and 5×10^3 CFU/mL, respectively. Plates were incubated for 48 h at 35° C.
(§5) MIC assays for the spore-forming filamentous fungi, such as strain A. flavus ATCC MYA-3631 (strain K), were performed in a similar fashion. The filamentous fungal strains were first cultured at 25° C. on potato dextrose agar (PDA) plates for 3-5 days or until confluent. Spores were collected by washing the surface of the agar plates with dd H2O (5 mL) and then isolated the spores by gravity filtration (the spores are H2O soluble). […] Researchers working with spores should wear a facemask to prevent spore inhalation.

[4] = system: Aspergillus terreus ATCC MYA-3633 (strain M); assay: as above; format: cell-based; conditions: strain M; all compounds; spores
Method: as §1, §2, §4, §5

[5] = system: Aspergillus flavus ATCC MYA-3631 (strain K); assay: as above; format: cell-based; conditions: all compounds
Method: as §1, §2, §4, §5

[6] = system: Candida glabrata ATCC 2001 (strain H); assay: Antifungal MIC determination (CLSI M27-A3, 96-well); format: cell-based; conditions: strain H; compounds 1-4n and AmB; 48 h, RPMI 1640
Method: as §1, §2, §3

[7] = system: Candida parapsilosis ATCC 22019 (strain J); assay: as above; format: cell-based; conditions: strain J; compounds 1-4n and AmB; 48 h, RPMI 1640
Method: as §1, §2, §3

[8] = system: Candida albicans ATCC 10231 (strain A); assay: as above; format: cell-based; conditions: strain A; compounds 1-4n and AmB; 48 h, RPMI 1640
Method: as §1, §2, §3

[9] = system: Candida krusei ATCC 6258 (strain I); assay: as above; format: cell-based; conditions: strain I; compounds 1-4n and AmB; 48 h, RPMI 1640
Method: as §1, §2, §3

[10] = system: C. albicans ATCC 90819(R) (strain D); assay: microbe, parasite or virus in culture; format: cell-based, Candida albicans; conditions: strain D; compounds 1-4n and AmB; 48 h, RPMI 1640
Method: as §1, §2, §3

[11] = system: C. albicans ATCC MYA-1237(R) (strain F); assay: microbe, parasite or virus in culture; format: cell-based, Candida albicans; conditions: strain F; compounds 1-4n and AmB; 48 h, RPMI 1640
Method: as §1, §2, §3

[12] = system: C. albicans ATCC 64124 (strain B); assay: microbe, parasite or virus in culture; format: cell-based, Candida albicans; conditions: strain B; compounds 1-4n and AmB; 48 h, RPMI 1640
Method: as §1, §2, §3

[13] = system: C. albicans ATCC MYA-1003(R) (strain G); assay: microbe, parasite or virus in culture; format: cell-based, Candida albicans; conditions: strain G; compounds 1-4n and AmB; 48 h, RPMI 1640
Method: as §1, §2, §3

Candida strains (A-J) = assay: Antifungal MIC, summary over panel of Candida strains; format: cell-based; conditions: Candida strains A-J
Method: as §1, §2, §3

Structure (SMILES)	MIC-0 [1]	MIC-0 [2]	MIC-0 [3]	MIC-0 [4]	MIC-0 [5]	MIC-0 [6]	MIC-0 [7]	MIC-0 [8]	MIC-0 [9]	MIC-0 [10]	MIC-0 [11]	MIC-0 [12]	MIC-0 [13]	MIC values against Candida strains, range (Candida strains (A-J))
CCCCCCCCCCCCn1sc2ccccc2c1=O [Compound 3d]	>12.5 µg/mL	>12.5 µg/mL	>12.5 µg/mL	>12.5 µg/mL	>12.5 µg/mL	12.5 µg/mL (≈ 39.1 µM)	>12.5 µg/mL	>12.5 µg/mL	>12.5 µg/mL	>12.5 µg/mL	>12.5 µg/mL	>12.5 µg/mL	>12.5 µg/mL	> 12.5 µg/mL
O=c1c2ccccc2sn1C1CCCC1 [Compound 3k]	0.39 µg/mL (≈ 1.78 µM)	0.78 µg/mL (≈ 3.56 µM)	0.10 µg/mL (≈ 0.456 µM)	0.10 µg/mL (≈ 0.456 µM)	0.20 µg/mL (≈ 0.912 µM)	0.78 µg/mL (≈ 3.56 µM)	1.56 µg/mL (≈ 7.11 µM)	0.39 µg/mL (≈ 1.78 µM)	0.39 µg/mL (≈ 1.78 µM)	0.39 µg/mL (≈ 1.78 µM)	0.39 µg/mL (≈ 1.78 µM)	1.56 µg/mL (≈ 7.11 µM)	0.78 µg/mL (≈ 3.56 µM)	0.39 to 1.56 µg/mL
O=c1c2ccccc2sn1-c1ccc(Cl)cn1 [Compound 2n]	12.5 µg/mL (≈ 47.6 µM)	12.5 µg/mL (≈ 47.6 µM)	>12.5 µg/mL	>12.5 µg/mL	>12.5 µg/mL	>12.5 µg/mL	>12.5 µg/mL	12.5 µg/mL (≈ 47.6 µM)	>12.5 µg/mL	>12.5 µg/mL	12.5 µg/mL (≈ 47.6 µM)	12.5 µg/mL (≈ 47.6 µM)	12.5 µg/mL (≈ 47.6 µM)	> 12.5 µg/mL
CC(C)c1ccc(-n2sc3ccccc3c2=O)cc1 [Compound 2e]	3.13 µg/mL (≈ 11.6 µM)	3.13 µg/mL (≈ 11.6 µM)	6.25 µg/mL (≈ 23.2 µM)	6.25 µg/mL (≈ 23.2 µM)	6.25 µg/mL (≈ 23.2 µM)	3.13 µg/mL (≈ 11.6 µM)	3.13 µg/mL (≈ 11.6 µM)	3.13 µg/mL (≈ 11.6 µM)	3.13 µg/mL (≈ 11.6 µM)	3.13 µg/mL (≈ 11.6 µM)	6.25 µg/mL (≈ 23.2 µM)	3.13 µg/mL (≈ 11.6 µM)	3.13 µg/mL (≈ 11.6 µM)	3.13 to 6.25 µg/mL
O=c1c2ccccc2sn1CCCc1ccccc1 [Compound 3j]	6.25 µg/mL (≈ 23.2 µM)	6.25 µg/mL (≈ 23.2 µM)	0.20 µg/mL (≈ 0.742 µM)	0.20 µg/mL (≈ 0.742 µM)	0.78 µg/mL (≈ 2.9 µM)	1.56 µg/mL (≈ 5.79 µM)	6.25 µg/mL (≈ 23.2 µM)	6.25 µg/mL (≈ 23.2 µM)	1.56 µg/mL (≈ 5.79 µM)	3.13 µg/mL (≈ 11.6 µM)	6.25 µg/mL (≈ 23.2 µM)	3.13 µg/mL (≈ 11.6 µM)	6.25 µg/mL (≈ 23.2 µM)	1.56 to 62.5 µg/mL
O=c1c2ccccc2sn1C1CCCCC1 [Compound 3l]	1.56 µg/mL (≈ 6.69 µM)	3.13 µg/mL (≈ 13.4 µM)	0.20 µg/mL (≈ 0.857 µM)	0.20 µg/mL (≈ 0.857 µM)	0.20 µg/mL (≈ 0.857 µM)	1.56 µg/mL (≈ 6.69 µM)	1.56 µg/mL (≈ 6.69 µM)	0.78 µg/mL (≈ 3.34 µM)	0.78 µg/mL (≈ 3.34 µM)	0.78 µg/mL (≈ 3.34 µM)	0.78 µg/mL (≈ 3.34 µM)	1.56 µg/mL (≈ 6.69 µM)	1.56 µg/mL (≈ 6.69 µM)	0.78 to 3.13 µg/mL
O=c1c2ccccc2sn1-c1cc(Br)cc(Br)c1 [Compound 2i]	6.25 µg/mL (≈ 16.2 µM)	6.25 µg/mL (≈ 16.2 µM)	3.13 µg/mL (≈ 8.13 µM)	12.5 µg/mL (≈ 32.5 µM)	12.5 µg/mL (≈ 32.5 µM)	6.25 µg/mL (≈ 16.2 µM)	6.25 µg/mL (≈ 16.2 µM)	3.13 µg/mL (≈ 8.13 µM)	6.25 µg/mL (≈ 16.2 µM)	6.25 µg/mL (≈ 16.2 µM)	3.13 µg/mL (≈ 8.13 µM)	6.25 µg/mL (≈ 16.2 µM)	6.25 µg/mL (≈ 16.2 µM)	–
